PMC6651024, “LIR Motif-Containing Hyperdisulfide β-Ginkgotide is Cytoprotective, Adaptogenic, and Scaffold-Ready” (Molecules, 2019)
“Also recorded” adds a separate entry of the source. Read-outs that look alike come from different tables or passages of the source. Where a SMILES comes first, the peptide text is derived from it.

Assays:
[1] = system: H9c2 cells; type: cell-based, rat; conditions: 48 h hypoxia, MTT
Procedure: Autophagy is an integrated stress response that clears the subcellular damages. Previous studies have shown that such damages can be induced by hypoxia and hypoxia-reoxygenation stress. Clearing subcellular damages would increase survivability. In traditional medicine, G. biloba is used as an herbal remedy for acute ischemic stroke and post-stroke recovery. To examine the effects of β-gB1 in hypoxia stress, we used cardio-myoblast H9c2 and SH-SY5Y cells. Cells were cultured with or without β-gB1 and incubated in a hypoxic environment for 48 h before the assessment of cell survival by the MTT assay. […] Importantly, when the concentration of β-gB1 was reduced tenfold from 10 to 1 µM, a 22–24% increase of survivability was still observed in H9c2 and SH-SY5Y cells (Figure 3A–D). […]
Cells were cultured in DMEM with or without β-gB1/S-alkylated β-gB1 (β-gB1Alk) for 48 h under normoxia, hypoxia, and hypoxia-reoxygenation conditions. […] The culture medium was then aspirated, and purple formazan crystals were dissolved in DMSO for colorimetric quantification at 570 nm using a microplate reader with a reference wavelength of 630 nm. […]

[2] = system: SH-SY5Y cells; assay: MTT-based cell proliferation assay under normoxia, SH-SY5Y; design: species or system human; conditions: 10 µM peptide, 48 h, triplicates
Text: In addition, β-gB1 is non-toxic to Vero and BHK (baby hamster kidney) cell lines based on an MTT assay. […] LDH is a cytoplasmic enzyme which is rapidly released into the cell culture medium upon plasma membrane damage and is widely used as a marker for cytotoxicity. Thus, an LDH-release assay measures the level of plasma membrane damage to a cell population.
(§1) Rat cardio-myoblast cells (H9c2) and […] neuron-like SH-SY5Y cells were purchased from ATCC and maintained in DMEM (Dulbecco’s modified eagle medium) medium supplemented with 10% fetal bovine serum (FBS), 10,000 U/mL of penicillin, and 10,000 µg/mL of streptomycin at 37 °C, 5% CO2.
Cells were cultured in DMEM with or without β-gB1/S-alkylated β-gB1 (β-gB1Alk) for 48 h under normoxia, hypoxia, and hypoxia-reoxygenation conditions. Phosphate-buffered saline (PBS) was used as a vehicle control. After 48 h, MTT (3-(4,5-dimethylthiazol-2-yl)-2,5-diphenyltetrazolium bromide) reagent was added with a final concentration of 0.5 mg/mL, and it was incubated at 37 °C for 2 h. The culture medium was then aspirated, and purple formazan crystals were dissolved in DMSO for colorimetric quantification at 570 nm using a microplate reader with a reference wavelength of 630 nm. […]

[3] = system: SH-SY5Y cells; assay: Hypoxia-reoxygenation injury, MTT assay, SH-SY5Y; type: cell-based, human; conditions: 1 µM peptide, 24 h hypoxia then 24 h normoxia, triplicates
Procedure: Cells were cultured with or without β-gB1 and its S-alkylated β-gB1, first under the hypoxic condition for 24 h and then at a normal oxygen environment for another 24 h. The cell viability under hypoxia-reoxygenation condition was assessed by the MTT assay.
as §1
Cells were seeded in a cell culture medium with/without β-gB1 and incubated at 37 °C, 5% CO2 overnight. The next day, the cells were locked inside a BD GasPak EZ anaerobe pouch system (BD Diagnostics, MD) and incubated at 37 °C for the next 48 h for the hypoxia condition. In addition, the cells were cultured under a normal oxygenated environment for the normoxic control. In hypoxia-reoxygenation experiments, the cells were incubated for 24 h in hypoxic conditions before being incubated for another 24 h under normoxia.
Phosphate-buffered saline (PBS) was used as a vehicle control.

**Q.** How did the “Increase of cell survivability under hypoxia” value ([1]; H9c2, 1 µM peptide, range printed jointly for H9c2 and SH-SY5Y) turn out when `CC[C@H](C)[C@@H]1NC(=O)[C@@H]2CSSC[C@H](NC(=O)CNC(=O)[C@@H](NC(=O)[C@H](CCC(=O)O)NC(=O)[C@@H](N)Cc3ccc(O)cc3)[C@@H](C)O)C(=O)N[C@@H](CCCCN)C(=O)N[C@@H](CCCNC(=N)N)C(=O)N[C@H]3CSSC[C@@H](C(=O)O)NC(=O)[C@H](CSSC[C@H](NC3=O)C(=O)N[C@@H](Cc3ccc(O)cc3)C(=O)N[C@@H](CC(C)C)C(=O)N[C@@H](CC(=O)O)C(=O)N[C@@H](CCC(=O)O)C(=O)N[C@@H](Cc3ccc(O)cc3)C(=O)NCC(=O)N2)NC(=O)[C@H](CCCNC(=N)N)NC1=O` [β-gB1] (HELM PEPTIDE1{Y.E.T.G.C.K.R.C.C.Y.L.D.E.Y.G.C.I.R.C.C}$PEPTIDE1,PEPTIDE1,5:R3-16:R3|PEPTIDE1,PEPTIDE1,8:R3-20:R3|PEPTIDE1,PEPTIDE1,9:R3-19:R3$$$V2.0; N-terminus and C-terminus assumed) was run?
**A.** Its value is 22–24%.

**Q.** What about the “Increase of cell survivability under hypoxia” value ([1]; H9c2, 10 µM peptide, triplicates) of the same compound?
**A.** Its value is 37%.

**Q.** What about the “Cell viability (growth or death) under normoxia” value [2] of the same compound?
**A.** The value was “No change in cell viability; also recorded: no significant effect on the growth or death”.

**Q.** What about the “Increase of cell survivability under hypoxia-reoxygenation” value [3] of the same compound?
**A.** Its value is 19%.
